Laboratory results from patent US20220162191A1, “SMALL MOLECULE MODULATORS OF IL-17” (LEO PHARMA A/S, priority 2019, published 2022).
Structures can show the parent of a compound that is named as a salt.

Each compound was assayed against T1, human IL-17AA (Homo sapiens, UniProt Q16552) (assay: IL-8 release assay in human epithelial keratinocytes adult (HEKa)). Conditions: 3 ng/ml human IL-17AA + 10 ng/ml human TNFalpha, 68-72 h, IL-8 by HTRF, read-out: Rel EC50 L-8 release assay.
T1 construct: host or cells: HEK (human embryonic kidney) cells
T1 sequence (Q16552 24-155) 1: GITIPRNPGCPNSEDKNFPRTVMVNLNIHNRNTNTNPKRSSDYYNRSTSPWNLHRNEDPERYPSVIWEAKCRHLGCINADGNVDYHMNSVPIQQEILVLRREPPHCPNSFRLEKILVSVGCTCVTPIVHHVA
T1 sequence (Q16552 24-155) 2: T1 sequence (Q16552 24-155) 1
Type: cell-based
In short: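 Adult human keratinocytes in Epilife with HKGS minus hydrocortisone, treated with compound then stimulated with final 3 ng/ml HEK-derived human IL-17AA plus 10 ng/ml TNF-alpha for 68–72 h at 37 °C; TNF-alpha alone defines 100% inhibition. Secreted IL-8 by HTRF; relative IC50 and Emax from four-parameter fits.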

Row | Structure (SMILES) | EC50 [nM]
1 | CC(C)Cn1cc(-c2ccc(Cl)c(C[C@H](NC(=O)c3ccnn3C)C(=O)Nc3ccc(-c4cncn4C)cc3)c2)nn1 [Example 212, N-[(1S)-1-[[2-chloro-5-(1-isobutyltriazol-4-yl)phenyl]methyl]-2-[4-(3-methylimidazol-4-yl)anilino]-2-oxo-ethyl]-2-methyl-pyrazole-3-carboxamide] | 100 to 1000
2 | CC(C)Cn1cc(-c2ccc(Cl)c(C[C@H](NC(=O)OC3CC3)C(=O)Nc3ccc(-c4cncn4C)cc3)c2)nn1 [Example 214, cyclopropyl N-[(1S)-1-[[2-chloro-5-(1-isobutyltriazol-4-yl)phenyl]methyl]-2-[4-(3-methylimidazol-4-yl)anilino]-2-oxo-ethyl]carbamate] | > 1000
3 | Cn1cncc1-c1ccc(NC(=O)[C@H](Cc2cc(-c3cccc([C@H]4COCCN4)c3)ccc2Cl)NC(=O)c2ccnn2C)cc1 [Example 215, N-[(1S)-1-[[2-chloro-5-[3-[(3S)-morpholin-3-yl]phenyl]phenyl]methyl]-2-[4-(3-methylimidazol-4-yl)anilino]-2-oxo-ethyl]-2-methyl-pyrazole-3-carboxamide] | 100 to 1000
4 | CN1CCOC[C@@H]1c1cccc(-c2ccc(Cl)c(C[C@H](NC(=O)c3ccnn3C)C(=O)Nc3ccc(-c4cncn4C)cc3)c2)c1 [Example 217, N-[(1S)-1-[[2-chloro-5-[3-[(3S)-4-methylmorpholin-3-yl]phenyl]phenyl]methyl]-2-[4-(3-methylimidazol-4-yl)anilino]-2-oxo-ethyl]-2-methyl-pyrazole-3-carboxamide] | 100 to 1000
5 | CN1CCOC[C@H]1c1cccc(-c2ccc(Cl)c(C[C@H](NC(=O)c3ccnn3C)C(=O)Nc3ccc(-c4cncn4C)cc3)c2)c1 [Example 218, N-[(1S)-1-[[2-chloro-5-[3-[(3R)-4-methylmorpholin-3-yl]phenyl]phenyl]methyl]-2-[4-(3-methylimidazol-4-yl)anilino]-2-oxo-ethyl]-2-methyl-pyrazole-3-carboxamide] | 100 to 1000
6 | Cn1cncc1-c1ccc(NC(=O)[C@H](Cc2cc(-c3cccc(C4CNCCO4)c3)ccc2Cl)NC(=O)c2ccnn2C)cc1 (stereo partly drawn) [Example 219, N-[(1S)-1-[[2-chloro-5-(3-morpholin-2-ylphenyl)phenyl]methyl]-2-[4-(3-methylimidazol-4-yl)anilino]-2-oxo-ethyl]-2-methyl-pyrazole-3-carboxamide hydrochloride] | 100 to 1000
7 | Cn1cncc1-c1ccc(NC(=O)[C@H](Cc2cc(-c3cccc([C@@H]4CNCCO4)c3)ccc2Cl)NC(=O)c2ccnn2C)cc1 [Example 221, N-[(1S)-1-[[2-chloro-5-[3-[(2R)-morpholin-2-yl]phenyl]phenyl]methyl]-2-[4-(3-methylimidazol-4-yl)anilino]-2-oxo-ethyl]-2-methyl-pyrazole-3-carboxamide] | 100 to 1000
8 | Cc1n[nH]c(C)c1-c1ccc(NC(=O)[C@H](Cc2cc(-c3ccnc(N4C[C@H]5C[C@@H]4CO5)c3)ccc2Cl)NC(=O)C2(F)CC2)cc1 [Example 222, N-[(1S)-1-[[2-chloro-5-[2-[(1R,4R)-2-oxa-5-azabicyclo[2.2.1]heptan-5-yl]-4-pyridyl]phenyl]methyl]-2-[4-(3,5-dimethyl-1H-pyrazol-4-yl)anilino]-2-oxo-ethyl]-1-fluoro-cyclopropanecarboxamide] | < 100
9 | Cc1n[nH]c(C)c1-c1ccc(NC(=O)[C@H](Cc2cc(-c3ccnc(N4C[C@@H]5C[C@H]4CN5)c3)ccc2Cl)NC(=O)C2(F)CC2)cc1 [Example 223, N-[(1S)-1-[[2-chloro-5-[2-[(1S,4S)-2,5-diazabicyclo[2.2.1]heptan-2-yl]-4-pyridyl]phenyl]methyl]-2-[4-(3,5-dimethyl-1H-pyrazol-4-yl)anilino]-2-oxo-ethyl]-1-fluoro-cyclopropanecarboxamide] | < 100
10 | Cc1n[nH]c(C)c1-c1ccc(NC(=O)[C@H](Cc2cc(-c3cnn(C)c3C)ccc2Cl)NC(=O)C2(F)CC2)cc1 [Example 227, N-[(1S)-1-[[2-chloro-5-(1,5-dimethylpyrazol-4-yl)phenyl]methyl]-2-[4-(3,5-dimethyl-1H-pyrazol-4-yl)anilino]-2-oxo-ethyl]-1-fluoro-cyclopropanecarboxamide] | 100 to 1000
11 | Cc1n[nH]c(C)c1-c1ccc(NC(=O)[C@H](Cc2cc(-c3ccc(CN4C[C@H]5C[C@@H]4CO5)cc3)ccc2Cl)NC(=O)C2(F)CC2)cc1 [Example 228, N-[(1S)-1-[[2-chloro-5-[4-[[(1R,4R)-2-oxa-5-azabicyclo[2.2.1]heptan-5-yl]methyl]phenyl]phenyl]methyl]-2-[4-(3,5-dimethyl-1H-pyrazol-4-yl)anilino]-2-oxo-ethyl]-1-fluoro-cyclopropanecarboxamide] | 100 to 1000

Next, values leading:

Row | EC50 [nM] | Structure (SMILES)
12 | 100 to 1000 | Cc1ncn(C)c1-c1ccc(NC(=O)[C@H](Cc2cc(-c3ccnc(N4CCN(C)CC4)c3)ccc2Cl)NC(=O)c2ccnn2C)cc1 [Example 213, N-[(1S)-1-[[2-chloro-5-[2-(4-methylpiperazin-1-yl)-4-pyridyl]phenyl]methyl]-2-[4-(3,5-dimethylimidazol-4-yl)anilino]-2-oxo-ethyl]-2-methyl-pyrazole-3-carboxamide]
13 | 100 to 1000 | Cn1cncc1-c1ccc(NC(=O)[C@H](Cc2cc(-c3cccc([C@@H]4COCCN4)c3)ccc2Cl)NC(=O)c2ccnn2C)cc1 [Example 216, N-[(1S)-1-[[2-chloro-5-[3-[(3R)-morpholin-3-yl]phenyl]phenyl]methyl]-2-[4-(3-methylimidazol-4-yl)anilino]-2-oxo-ethyl]-2-methyl-pyrazole-3-carboxamide]
14 | 100 to 1000 | Cn1cncc1-c1ccc(NC(=O)[C@H](Cc2cc(-c3cccc([C@H]4CNCCO4)c3)ccc2Cl)NC(=O)c2ccnn2C)cc1 [Example 220, N-[(1S)-1-[[2-chloro-5-[3-[(2S)-morpholin-2-yl]phenyl]phenyl]methyl]-2-[4-(3-methylimidazol-4-yl)anilino]-2-oxo-ethyl]-2-methyl-pyrazole-3-carboxamide]
15 | < 100 | Cc1ncn(C)c1-c1ccc(NC(=O)[C@H](Cc2cc(-c3ccnc(N4CCOCC4)c3)ccc2Cl)NC(=O)C2(F)CC2)cc1 [Example 224, N-[(1S)-1-[[2-chloro-5-(2-morpholino-4-pyridyl)phenyl]methyl]-2-[4-(3,5-dimethylimidazol-4-yl)anilino]-2-oxo-ethyl]-1-fluoro-cyclopropanecarboxamide]
16 | < 100 | Cc1n[nH]c(C)c1-c1ccc(NC(=O)[C@H](Cc2cc(-c3ccnc(N4CCOCC4)c3)ccc2Cl)NC(=O)C2(F)CC2)cc1 [Example 225, N-[(1S)-1-[[2-chloro-5-(2-morpholino-4-pyridyl)phenyl]methyl]-2-[4-(3,5-dimethyl-1H-pyrazol-4-yl)anilino]-2-oxo-ethyl]-1-fluoro-cyclopropanecarboxamide]
17 | 100 to 1000 | Cc1n[nH]c(C)c1-c1ccc(NC(=O)[C@H](Cc2cc(-c3ccnn3C3CCC3)ccc2Cl)NC(=O)C2(F)CC2)cc1 [Example 226, N-[(1S)-1-[[2-chloro-5-(2-cyclobutylpyrazol-3-yl)phenyl]methyl]-2-[4-(3,5-dimethyl-1H-pyrazol-4-yl)anilino]-2-oxo-ethyl]-1-fluoro-cyclopropanecarboxamide]
